# Measured values taken from paper PMC3547328 (Chemical communications (Cambridge, England), 2013).
# Legend:
# [1] = typical range; depends on solvent exposure and quenching; cited from earlier work
# CaM = settings: cited from earlier work
# [2] = Collisional quenching experiments on NAAzAP with free amino acids and imidazole; assay type: physicochemical
# [3] = Fluorescence spectra of NAAzAP in different solvents; assay type: physicochemical; settings: upon lowering solvent polarity, λex 342 nm
# [4] = Absorption and fluorescence; assay type: physicochemical
# [5] = Fluorescence lifetime measurements; assay type: physicochemical; settings: free and peptide incorporated forms
molecule,measurement,setting,value
N[C@@H](Cc1c[nH]c2ccccc12)C(=O)O [Tryptophan],apparent Trp quantum yield (Φ),[1],0.35 to 0.01
Melittin: Melittin has strong affinity for CaM,affinity for CaM,CaM,strong affinity for CaM
"CCCNC(=O)C(Cc1ccc2cccccc1-2)NC(C)=O (centres unmarked) [NAAzAP, N-Acetyl-(AzulylAlanine)-propylamide]",fluorescence quenching,[2]; quencher: free methionine,quenched
same,fluorescence quenching,[2]; quencher: imidazole,quenched
same,fluorescence quenching,"[2]; quencher: tryptophan, same conditions",not by tyrosine or tryptophan
same,fluorescence quenching,"[2]; quencher: tyrosine, same conditions",not by tyrosine or tryptophan
same,red shift of fluorescence spectra,[3],6 nm
"N[C@@H](Cc1ccc2cccccc1-2)C(=O)O [AzAla, β-(1-Azulenyl)-L-Alanine]",extinction coefficient,[4]; S2-S0 transition,~ 4200 cm^−1M^−1
same,quantum yield,[4]; relative to tryptophan,comparable to those of tryptophan
same,apparent emission intensity,"[4]; relative to tryptophan, narrower profile of the azulene emission",nearly the same apparent emission intensity
same,fluorescence decay,[5],simple monoexponential fluorescence decay
